The test system of one assay is KASUMI-1 cells. In words: Kasumi cell assay (CellTiter-Glo cell growth). Type of assay: cell-based. The note with it: Homo sapiens, Kasumi 1; treated for 120 hours, CellTiter-Glo luminescence; read-out: KASUMI1 cells IC50. As to the method: Upon treatment, Kasumil cells were incubated for 10 min at RT with the CellTiter-Glo reagent (G7571, Promega). Measurement of the luminescence signal was performed on a microplate reader (Ensight, PerkinElmer).
Background: In ATP-based viability assays light output follows the ATP content of the culture.

A further assay deals with Caov-3 cells. The experiment in a line: Caov3 CTG proliferation assay. The note with it: Homo sapiens, Caov-3; treated for 120 hours, CellTiter-Glo luminescence; read-out: Caov3 cells IC50. Type of assay: cell-based. As to the method:
CTG Assay (Caov3 Cell Line)
Upon treatment, Coav-3 cells were incubated for 10 min at RT with the CellTiter-Glo reagent (G7571, Promega). Measurement of the luminescence signal was performed on a microplate reader (Ensight, PerkinElmer).
Caov3 CTG Assay—Proliferation Assay

The target in assay [1] is T1, METTL3/14 (Homo sapiens (Human), UniProt Q86U44).
T1 sequence (Q86U44 whole entry): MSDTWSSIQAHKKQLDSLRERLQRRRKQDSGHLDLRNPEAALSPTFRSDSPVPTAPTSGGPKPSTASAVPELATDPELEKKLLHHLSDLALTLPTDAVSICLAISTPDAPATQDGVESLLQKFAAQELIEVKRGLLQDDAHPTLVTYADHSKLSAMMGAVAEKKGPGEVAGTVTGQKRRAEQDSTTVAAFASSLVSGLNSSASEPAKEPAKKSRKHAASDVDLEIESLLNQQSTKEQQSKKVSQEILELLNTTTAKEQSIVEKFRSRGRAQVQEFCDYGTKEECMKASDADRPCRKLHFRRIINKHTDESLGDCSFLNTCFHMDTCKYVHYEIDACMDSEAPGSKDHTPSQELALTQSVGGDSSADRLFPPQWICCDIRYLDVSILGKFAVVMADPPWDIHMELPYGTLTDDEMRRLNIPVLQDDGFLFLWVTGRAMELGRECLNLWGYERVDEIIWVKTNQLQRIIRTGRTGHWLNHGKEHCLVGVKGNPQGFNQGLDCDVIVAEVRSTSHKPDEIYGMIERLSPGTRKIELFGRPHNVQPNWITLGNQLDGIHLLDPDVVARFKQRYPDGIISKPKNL
T1 sequence (Q9HCE5 whole entry partner): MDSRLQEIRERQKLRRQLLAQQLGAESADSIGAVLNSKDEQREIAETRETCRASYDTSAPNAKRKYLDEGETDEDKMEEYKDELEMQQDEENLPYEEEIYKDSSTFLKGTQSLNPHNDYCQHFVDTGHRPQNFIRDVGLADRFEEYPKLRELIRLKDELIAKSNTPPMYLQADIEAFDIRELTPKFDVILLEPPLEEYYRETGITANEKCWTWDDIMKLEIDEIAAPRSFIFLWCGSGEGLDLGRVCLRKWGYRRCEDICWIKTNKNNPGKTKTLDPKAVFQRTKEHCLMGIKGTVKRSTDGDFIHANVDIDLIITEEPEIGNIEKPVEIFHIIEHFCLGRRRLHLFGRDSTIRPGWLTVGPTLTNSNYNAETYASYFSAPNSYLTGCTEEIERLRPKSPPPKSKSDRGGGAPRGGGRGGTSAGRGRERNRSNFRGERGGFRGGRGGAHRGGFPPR
For assay [2], the target named is T1, METTL3/14. The experiment in a line: biochemical.

For eight molecules, IC50 results are on record in US11725010B2, “Polyheterocyclic compounds as METTL3 inhibitors” (Storm Therapeutics Limited, priority 2019, dated 2023).

Where two headings read alike, the source gives them in different places.

In general, IC50 refers to the concentration that inhibits the measured activity by half. As to `[2H]C([2H])(NCC1CCC1)c1cc2ccc(CNC(=O)c3cc(=O)n4ccccc4n3)cc2[nH]1` [Example 47, N-[[2-[(Cyclobutylmethylamino)-dideuterio-methyl]-1H-indol-6-yl]methyl]-4-oxo-pyrido[1,2-a]pyrimidine-2-carboxamide], the figures for the IC50 in the assay on KASUMI-1 cells, in the assay on Caov-3 cells and against METTL3/14 [1] were 344 nM, 186 nM and 6.1 nM, respectively.
For `c1cc(-c2cn(Cc3cc4[nH]c(CNCC5CCC5)cc4cn3)nn2)c2cn[nH]c2c1` [Example 60, N-(cyclobutylmethyl)-1-[6-[[4-(1H-indazol-4-yl)triazol-1-yl]methyl]-1H-pyrrolo[3,2-c]pyridin-2-yl]methanamine], in that order: 2180 nM, 423 nM and 6.1 nM.
On to `CC1(NCc2cc3ccc(CNC(=O)c4cc(=O)n5ccccc5n4)cc3[nH]2)CCCC1` [Example 114, N-[(2-{[(1-methylcyclopentyl)amino]methyl}-1H-indol-6-yl)methyl]-4-oxo-4H-pyrido[1,2-a]pyrimidine-2-carboxamide], for which the results for the IC50 in the assay with KASUMI-1 cells, with Caov-3 cells and against METTL3/14 [1] were 1460 nM, 679 nM and 6.1 nM, respectively.
`FC12CC(CNCc3cc4ccc(Cn5cc(-c6cccn7cncc67)nn5)cc4[nH]3)(C1)C2` [Example 124, ({3-fluorobicyclo[1.1.1]pentan-1-yl}methyl)({6-[(4-{imidazo[1,5-a]pyridin-8-yl}-1H-1,2,3-triazol-1-yl)methyl]-1H-indol-2-yl}methyl)amine]: the results for the IC50 in the assay on KASUMI-1 cells, in the assay with Caov-3 cells and at METTL3/14 [1] were 662 nM, 266 nM and 6.1 nM, respectively.
In the case of `O=C(NCc1ccc2cc(CNCC34CC(F)(C3)C4)[nH]c2c1)c1cc(=O)n2ccsc2n1` [Example 125, N-[(2-{[({3-fluorobicyclo[1.1.1]pentan-1-yl}methyl)amino]methyl}-1H-indol-6-yl)methyl]-5-oxo-5H-[1,3]thiazolo[3,2-a]pyrimidine-7-carboxamide], the IC50 with KASUMI-1 cells was 504 nM; with Caov-3 cells it was 212 nM; against METTL3/14 [1] it was 6.1 nM.
The like results for `O=C(NCc1cnc2cc(CNCC34CC(C3)C4)[nH]c2c1)c1cc(=O)n2ccccc2n1` [Example 126, N-[(2-{[({bicyclo[1.1.1]pentan-1-yl}methyl)amino]methyl}-1H-pyrrolo[3,2-b]pyridin-6-yl)methyl]-4-oxo-4H-pyrido[1,2-a]pyrimidine-2-carboxamide] were, in that order, 3070 nM, 523 nM and 6.1 nM.
On METTL3/14 [2], `c1cc(-n2cc(Cc3ccc4cc(CNCC5CCC5)[nH]c4c3)nn2)c2cncn2c1` [Example 144, (cyclobutyl-methyl)({6-[(1-{imidazo[1,5-a]pyridin-8-yl}-1H-1,2,3-triazol-4-yl)methyl]-1H-indol-2-yl}methyl) amine] returned a half-maximal inhibitory concentration (IC50) of 19.3 nM.
For the molecule `c1cc(-c2cn(Cc3cc4[nH]c(CN5CCC6(CCC6)C5)cc4cn3)nn2)c2cncn2c1` [Example 155, 2-((6-azaspiro[3.4]octan-6-yl)methyl)-6-((4-(imidazo[1,5-a]pyridin-8-yl)-1H-1,2,3-triazol-1-yl)methyl)-1H-pyrrolo[3,2-c]pyridine], the IC50 in the assay with KASUMI-1 cells is 547 nM; in the assay on Caov-3 cells, 473 nM; on METTL3/14 [1] it was less than 6.1 nM.
